Measurements from patent publication US20150148759A1, “Pharmaceutical Patch for Transdermal Administration of Tapentadol” (Gruenenthal GmbH, priority 2012, published 2015).
Converted amounts (≈) assume the structure as drawn. “And” between values parts separate entries of the source, which are not always exact repeats. Identical values can stand only once. Counter-ions that a name gives are not always drawn. Like-named read-outs stand apart in the source and are kept apart here.

Assays:
pain = experiment: preliminary clinical trials, pain treating effect (visual analog scale); format: in vivo, human
Description: Low serum concentrations of Tapentadol suffice to show an effect in individuals that are relatively sensitive and higher serum concentrations of Tapentadol are needed to show an effect in persons that are relatively unsensitive.

hairless mouse skin = experiment: in-vitro skin permeation from donor solution, Franz-diffusion cell; format: in vitro ADME
Protocol: Saturated solutions of API and API HCl were prepared in a mixture of ethanol and dodecanol (95:5) and ethanol and oleic acid (85:15), respectively.
An in-vitro permeation study was performed with the saturated solutions to show permeation of drug through mouse skin. The in-vitro experiments were conducted using a Franz-diffusion cell. The Franz-diffusion cell consists of a donor compartment and an acceptor compartment. • Skin: hairless mouse skin, female, age 6-7 weeks • Stem: Hsd: Athymic Nude-Foxn1^nu • Dermal tissue: dorsal and abdominal with all dermal layers • Breeder: Harlan Laboratories GmbH • Acceptor medium: HEPES buffer pH 7.2 • Volume acceptor: 15 mL • Volume donor: 1.0 mL • Donor solutions: • API HCl in ethanol/dodecanol (95/5) • API HCl in ethanol/oleic acid (85/15) • API in ethanol/dodecanol (95/5) • API in ethanol/oleic acid (85/15) • Permeation area: ˜1.00 cm^2 • Temperature in donor solution: 32±0.5° C. • Sampling times: 3 h, 6 h, 12 h, 18 h, 24 h • Sampling: automatic sampling system #115 • Rinsed volume: ˜7.0 mL • Sample volume: 1.0 mL • Replaced volume: 8.0 mL • Standards: • API HCl in acceptor medium • c(std A)=86.12 μg/mL • c(std B)=8.612 μg/mL • HPLC method: see above • Injection volume: variable between 3-15 μL and adjusted dilution factor

[1] = solubility of API and API HCl in different solvents; format: physicochemical
Protocol: The solubility of API and API HCl in different organic solvents and aqueous solutions is tested by transferring defined volumes of the solvents into micro vials. API and API HCl, respectively, are added until saturation. The solutions are centrifuged and the supernatants analyzed by HPLC (Table 1).

[2] = compatibility of API HCl with different adhesives; format: physicochemical
Protocol: The compatibility of the hydrochloride salt of Tapentadol (API HCl) with different types of adhesives is tested (Table 2).
Duro-Tak 87-900A: non-functional acrylic (no hydroxyl, no carboxyl groups), non-curing
Duro-Tak 87-4287: hydroxyl-functionalized polyacrylate-vinylacetate copolymer, non-curing
Duro-Tak 87-2677: carboxylate-functionalized polyacrylate-vinylacetate copolymer, self-curing
Duro-Tak 87-6911 A: tackified styrene rubber (styrene-block-butadiene-block-styrene), not functionalized
Bio PSA 7-4502: silicone adhesive.

[3] = donor ethanol/dodecanol (95:5), time between sampling 6 h, 5th interval (sampling at 24 h)
[4] = donor ethanol/dodecanol (95:5), total dissolution time 3 h
[5] = donor ethanol/dodecanol (95:5), total dissolution time 6 h
[6] = donor ethanol/dodecanol (95:5), total dissolution time 12 h
[7] = donor ethanol/dodecanol (95:5), total dissolution time 18 h
[8] = donor ethanol/dodecanol (95:5), total dissolution time 24 h
[9] = donor ethanol/oleic (85:15), time between sampling 3 h, 1st interval (sampling at 3 h)
[10] = donor ethanol/oleic (85:15), time between sampling 3 h, 2nd interval (sampling at 6 h)
[11] = donor ethanol/oleic (85:15), time between sampling 6 h, 3rd interval (sampling at 12 h)
[12] = donor ethanol/oleic (85:15), time between sampling 6 h, 5th interval (sampling at 24 h)
[13] = donor ethanol/oleic (85:15), total dissolution time 3 h
[14] = donor ethanol/oleic (85:15), total dissolution time 6 h
[15] = donor ethanol/oleic (85:15), total dissolution time 12 h
[16] = donor ethanol/oleic (85:15), total dissolution time 18 h
[17] = donor ethanol/oleic (85:15), total dissolution time 24 h
[18] = donor ethanol/oleic (85:15), total time 3 h
[19] = donor ethanol/oleic (85:15), total time 6 h
[20] = donor ethanol/oleic (85:15), total time 12 h
[21] = donor ethanol/oleic (85:15), total time 18 h
[22] = donor ethanol/oleic (85:15), total time 24 h

CC[C@@H](c1cccc(O)c1)[C@@H](C)CN(C)C [Tapentadol, 3-[(1R,2R)-3-(dimethylamino)-1-ethyl-2-methylpropyl]phenol]
visual analog scale (VAS) in a population mean (pain; serum concentration about 5 ng·ml^−1): approximately −2 mm | visual analog scale (VAS) in a population mean (pain; serum concentration about 300 ng·ml^−1): approximately −15 mm

CC[C@@H](c1cccc(O)c1)[C@@H](C)CN(C)C [API, 3-[(1R,2R)-3-(dimethylamino)-1-ethyl-2-methylpropyl]phenol]
passes across the skin barrier (hairless mouse skin; compared with the hydrochloride of Tapentadol): much better | flux (hairless mouse skin; donor ethanol/dodecanol (95:5), time between sampling 3 h, 1st interval (sampling at 3 h)): 178.1 μg/cm^2h and 263.3 μg/cm^2h | flux (hairless mouse skin; donor ethanol/dodecanol (95:5), time between sampling 3 h, 2nd interval (sampling at 6 h)): 314.1 μg/cm^2h and 398.7 μg/cm^2h | flux (hairless mouse skin; donor ethanol/dodecanol (95:5), time between sampling 6 h, 3rd interval (sampling at 12 h)): 789.1 μg/cm^2h and 1056.3 μg/cm^2h | flux (hairless mouse skin; donor ethanol/dodecanol (95:5), time between sampling 6 h, 4th interval (sampling at 18 h)): 2405.6 μg/cm^2h and 2492.9 μg/cm^2h | flux (hairless mouse skin; [3]): 1028.9 μg/cm^2h and 1038.6 μg/cm^2h | permeated amount of API or API HCl (hairless mouse skin; [4]): 1.0% and 1.5% | total permeated amount of API or API HCl (hairless mouse skin; [4]): 534.4 μg/cm^2 and 789.9 μg/cm^2 | permeated amount of API or API HCl (hairless mouse skin; [5]): 2.9% and 3.9% | total permeated amount of API or API HCl (hairless mouse skin; [5]): 1476.8 μg/cm^2 and 1986.1 μg/cm^2 | permeated amount of API or API HCl (hairless mouse skin; [6]): 12.1% and 16.2% | total permeated amount of API or API HCl (hairless mouse skin; [6]): 6211.5 μg/cm^2 and 8324.0 μg/cm^2 | permeated amount of API or API HCl (hairless mouse skin; [7]): 40.2% and 45.4% | total permeated amount of API or API HCl (hairless mouse skin; [7]): 20644.9 μg/cm^2 and 23281.6 μg/cm^2 | permeated amount of API or API HCl (hairless mouse skin; [8]): 52.3% and 57.5% | total permeated amount of API or API HCl (hairless mouse skin; [8]): 26818.4 μg/cm^2 and 29513.4 μg/cm^2 | concentration of API or API HCl in sample solution (hairless mouse skin; donor ethanol/dodecanol (95:5), total time 3 h): 34.914 µg/mL and 51.610 µg/mL | concentration of API or API HCl in sample solution (hairless mouse skin; donor ethanol/dodecanol (95:5), total time 6 h): 79.955 µg/mL and 105.327 µg/mL | concentration of API or API HCl in sample solution (hairless mouse skin; donor ethanol/dodecanol (95:5), total time 12 h): 351.444 µg/mL and 469.548 µg/mL | concentration of API or API HCl in sample solution (hairless mouse skin; donor ethanol/dodecanol (95:5), total time 18 h): 1128.078 µg/mL and 1224.529 µg/mL | concentration of API or API HCl in sample solution (hairless mouse skin; donor ethanol/dodecanol (95:5), total time 24 h): 997.460 µg/mL and 1052.063 µg/mL | flux (hairless mouse skin; [9]): 273.5 μg/cm^2h and 441.9 μg/cm^2h | flux (hairless mouse skin; [10]): 1279.0 μg/cm^2h and 1897.8 μg/cm^2h | flux (hairless mouse skin; [11]): 458.8 μg/cm^2h and 247.0 μg/cm^2h | flux (hairless mouse skin; [12]): 572.1 μg/cm^2h and 382.5 μg/cm^2h | permeated amount of API or API HCl (hairless mouse skin; [13]): 1.7% and 2.7% | total permeated amount of API or API HCl (hairless mouse skin; [13]): 820.5 μg/cm^2 and 1325.6 μg/cm^2 | permeated amount of API or API HCl (hairless mouse skin; [14]): 9.5% and 14.3% | total permeated amount of API or API HCl (hairless mouse skin; [14]): 4657.4 μg/cm^2 and 7019.0 μg/cm^2 | permeated amount of API or API HCl (hairless mouse skin; [15]): 15.1% and 17.3% | total permeated amount of API or API HCl (hairless mouse skin; [15]): 7410.5 μg/cm^2 and 8500.8 μg/cm^2 | permeated amount of API or API HCl (hairless mouse skin; [16]): 17.9% and 26.6% | total permeated amount of API or API HCl (hairless mouse skin; [16]): 8799.1 μg/cm^2 and 13084.6 μg/cm^2 | permeated amount of API or API HCl (hairless mouse skin; [17]): 24.9% and 31.3% | total permeated amount of API or API HCl (hairless mouse skin; [17]): 12231.6 μg/cm^2 and 15379.8 μg/cm^2 | concentration of API or API HCl in sample solution (hairless mouse skin; [18]): 53.604 µg/mL and 86.606 µg/mL | concentration of API or API HCl in sample solution (hairless mouse skin; [19]): 278.914 µg/mL and 417.581 µg/mL | concentration of API or API HCl in sample solution (hairless mouse skin; [20]): 326.763 µg/mL and 316.739 µg/mL | concentration of API or API HCl in sample solution (hairless mouse skin; [21]): 262.813 µg/mL and 466.288 µg/mL | concentration of API or API HCl in sample solution (hairless mouse skin; [22]): 362.673 µg/mL and 395.534 µg/mL | solubility ([1]; HEPES (pH = 7.2)): 5.43 mg/mL (≈ 24.5 mM) | solubility ([1]; acetone): 332 mg/mL (≈ 1500 mM) | dissolved amounts of API ([1]; aqueous solutions): ≤ 5.5 mg/mL | solubility ([1]; ethanol): 404 mg/mL (≈ 1830 mM) | solubility ([1]; ethylacetate): 232 mg/mL (≈ 1050 mM) | solubility ([1]; n-heptane, organic solvent or mixture, thermodynamic from solid, n-heptane, read-out: solubility): 1.27 mg/mL (≈ 5.74 mM) | API contents measured ([1]; organic solvents other than n-heptane): higher than 230 mg/mL | solubility ([1]; water (pH = 5.8)): 0.48 mg/mL (≈ 2.17 mM)

CC[C@@H](c1cccc(O)c1)[C@@H](C)CN(C)C [API HCl]
flux (hairless mouse skin; [3]): 810.2 μg/cm^2h and 480.5 μg/cm^2h | permeated amount of API or API HCl (hairless mouse skin; [4]): 0.8% and 0.2% | permeated amount of API or API HCl (hairless mouse skin; [5]): 2.1% and 0.7% | permeated amount of API or API HCl (hairless mouse skin; [6]): 8.0% and 2.6% | flux (hairless mouse skin; [9]): 55.4 μg/cm^2h and 63.3 μg/cm^2h | flux (hairless mouse skin; [10]): 107.6 μg/cm^2h and 142.2 μg/cm^2h | flux (hairless mouse skin; [11]): 205.0 μg/cm^2h and 234.1 μg/cm^2h | flux (hairless mouse skin; donor ethanol/oleic (85:15), time between sampling 6 h, 4th interval (sampling at 18 h)): 142.8 μg/cm^2h and 155.3 μg/cm^2h | flux (hairless mouse skin; [12]): 114.7 μg/cm^2h and 115.8 μg/cm^2h | permeated amount of API or API HCl (hairless mouse skin; [13]): 0.4% and 0.5% | total permeated amount of API or API HCl (hairless mouse skin; [13]): 166.2 μg/cm^2 and 189.9 μg/cm^2 | permeated amount of API or API HCl (hairless mouse skin; [14]): 1.2% and 1.6% | total permeated amount of API or API HCl (hairless mouse skin; [14]): 489.0 μg/cm^2 and 616.7 μg/cm^2 | permeated amount of API or API HCl (hairless mouse skin; [15]): 4.4% and 5.1% | total permeated amount of API or API HCl (hairless mouse skin; [15]): 1718.7 μg/cm^2 and 2021.1 μg/cm^2 | permeated amount of API or API HCl (hairless mouse skin; [16]): 6.5% and 7.5% | total permeated amount of API or API HCl (hairless mouse skin; [16]): 2575.7 μg/cm^2 and 2953.1 μg/cm^2 | permeated amount of API or API HCl (hairless mouse skin; [17]): 8.3% and 9.3% | total permeated amount of API or API HCl (hairless mouse skin; [17]): 3263.7 μg/cm^2 and 3647.7 μg/cm^2 | concentration of API or API HCl in sample solution (hairless mouse skin; [18]): 10.859 µg/mL and 12.409 µg/mL | concentration of API or API HCl in sample solution (hairless mouse skin; [19]): 26.807 µg/mL and 34.414 µg/mL | concentration of API or API HCl in sample solution (hairless mouse skin; [20]): 94.462 µg/mL and 109.882 µg/mL | concentration of API or API HCl in sample solution (hairless mouse skin; [21]): 105.741 µg/mL and 118.759 µg/mL | concentration of API or API HCl in sample solution (hairless mouse skin; [22]): 100.635 µg/mL and 107.927 µg/mL | solubility ([1]; HEPES (pH = 7.2)): 286 mg/mL | solubility ([1]; acetone): 0.92 mg/mL | solubility ([1]; aqueous solutions): excellent solubility | solubility ([1]; ethanol): 33.1 mg/mL | solubility ([1]; ethylacetate): 4.46 mg/mL | solubility ([1]; organic solvents like ethylacetate or acetone, ethanol and n-heptane): hardly soluble | solubility ([1]; water (pH = 5.8)): 298 mg/mL | appearance of solution ([2]; carboxylate-functionalized DT 87-2677): yellowish solutions are clear | appearance of solution ([2]; hydroxyl-functionalized polymer DT 87-4287): opaque solutions which turn slightly yellow after two weeks at room temperature | appearance of solution ([2]; non-functionalized DT 87-900A): clear and colorless | appearance of solution ([2]; silicone adhesive Bio PSA 7-4502, 2 and 5% of API HCl): clear and colorless
